# Measured values reported in patent publication US20260168007A1, “Methods and Devices for Detecting Mechanical Forces Using Cas Nuclease and Guide RNA Complexes” (Emory University, priority 2022, published 2026).
# Legend:
# [1] = tested on: human platelets; assay: MCATS assay of human platelet forces on Ttol=12 pN surface
# Method: Each drug was incubated for 30 min prior to seeding. Mechano-IC50 was calculated by fitting a plot to a standard dose-response function: Signal=Bottom+(Top-Bottom)/(1+([drug]/IC50).
# Platelet-rich plasma (PRP) is prepared by centrifugation and separation from whole blood. Then platelets rich plasma was separated and centrifuged a second time with apyrase and resuspended in Tyrode's solution, which is isotonic with interstitial fluid, contains magnesium, and uses bicarbonate and phosphate as a buffer. Apyrase is important in the platelets purification process to prevent hemolysis caused platelets aggregation. MCATS was tested as a function of the number of platelets seeded on the Ttol=12pN surface (FIG. 3A). […]
# MCATS assay was performed on the prepared biotin surface as described in the surface preparation section. […] Surfaces with exposed activator were imaged directly with fluorescence microscopy for high resolution characterization and quantification. […] After 1 h of incubation, fluorescence intensities on 96 well plates were measured with a plate reader (Ex/Em=540/590 nm for reporter channel).
# For platelet MCATS measurements, human platelets were purified and incubated at room temperature for at least 30 min before beginning experiments. […] The same MCATS protocols were followed to achieve amplification and quantification for platelets.
# [2] = tested on: NIH/3T3 cells; assay: MCATS assay of integrin-mediated forces in NIH/3T3 cells, plate reader readout; type: cell-based; conditions: NIH/3T3 cells pretreated 30 min, 0-50 μM
# Method: The values were normalized to the signal obtained from the 25,000 cells/well samples without drug treatment. All measurements were background subtracted using negative control wells lacking cells.
# Considering that receptor mediated tension plays an important role in cell function, quantifying molecular forces of cell in a rapid fashion facilitates applications such as screening dose-response curves for drugs that modulate cell mechanics. Experiments were performed to determine whether MCATS can be used to produce a dose response curve for NIH-3T3 cell incubated with Rho kinase inhibitor, Y-27632, which targets the phosphorylation of myosin light chain and therefore dampens forces transmitted by focal adhesions. NIH/3T3 cells were pretreated with a range of Y-27632 concentrations (0-50 μM) for 30 min. MCATS was ran with the drug treated cell.
# The wells were washed with 1×PBS.
smiles,measurement,setting,value
Nc1ncnc2c1ncn2[C@@H]1O[C@H](COP(=O)(O)OP(=O)(O)O)[C@@H](O)[C@H]1O [ADP],"MCATS tension signal, dose-response to agonist",[1],Increasing tension signal
C[C@@H](N)[C@H]1CC[C@H](C(=O)Nc2ccncc2)CC1 [Y-27632],MCATS signal as a function of drug concentration,[2],dose-dependent reduction
